{"source": "patent US20180360042A1", "about": "“Liquid fungicide-containing formulations” (BAYER CROPSCIENCE AKTIENGESELLSCHAFT, priority 2015, published 2018)", "key": {"[1]": {"assay": "Determination of compound (III) content in prothioconazole formulations after storage at 54° C. for 2 weeks", "format": "physicochemical", "conditions": "PTZ EC 250 after storage at 54° C. over 2 weeks", "description": "(§1) Determination of 2-(1-chlorocyclopropyl)-1-(2-chlorophenyl)-3-(1H-1,2,4-triazol-1-yl)propan-2-ol (Compound III) in Formulations\n(§2) 2-(1-Chlorocyclopropyl)-1-(2-chlorophenyl)-3-(1H-1,2,4-triazol-1-yl)propan-2-ol is separated from the formulation constituents on a reverse phase column using an isocratic eluent. After MS/MS detection, the quantitative evaluation is conducted by comparing the peak areas with those of the reference object, using an external standard.\n(§3) High-pressure liquid chromatograph: HP 1090\n(§4) Sample injection: HP 1090 Autoinjector\n(§5) Mass spectrometer: Quattro I, Fisons\n(§6) Integration and evaluation: MassLynx from Micromass\nExample 9: Comparison of Compound (III) Content of the Formulations from Examples 1 to 4 after Storage at 54° C. for 2 Weeks"}, "[2]": {"assay": "Determination of compound (III) content in prothioconazole formulations by HPLC-MS/MS, starting samples", "format": "physicochemical", "conditions": "PTZ EC 250 starting sample", "description": "as §1, §2, §3, §4, §5, §6"}, "[3]": {"conditions": "addition of 10% wt/wt Hallcomid vs 0%"}, "[4]": {"conditions": "addition of 20% wt/wt Hallcomid vs 0%"}}, "data": [{"smiles": "C=CCCCCCCCC(=O)N(C)C", "note": "[Hallcomid®, N,N-dimethyl 9-decenamide]", "values": [{"measurement": "reduction in the content of compound (III)", "setting": "[1]; [3]", "result": 75, "unit": "%"}, {"measurement": "reduction in the content of compound (III)", "setting": "[1]; [4]", "result": 82, "unit": "%"}, {"measurement": "reduction in the content of compound (III)", "setting": "[1]; addition of 56.9% wt/wt Hallcomid vs 0%", "result": 98, "unit": "%"}, {"measurement": "reduction of the content of compound (III)", "setting": "[2]; [3]", "result": 72, "unit": "%"}, {"measurement": "reduction of the content of compound (III)", "setting": "[2]; [4]", "result": 76, "unit": "%"}, {"measurement": "reduction of the content of compound (III)", "setting": "[2]; addition of 54.9% wt/wt Hallcomid vs 0%", "result": 97, "unit": "%"}]}]}
